# Laboratory results as given in patent US20110306636A1, “OXAZOLE PYRIDINE DERIVATIVES USEFUL AS S1P1 RECEPTOR AGONISTS” (Merck Serono SA, priority 2009, published 2011).
# Counter-ions that a name gives are not always drawn. Like-named read-outs stand apart in the source and are kept apart here.
# How the values were obtained:
# S1P3 = S1P3 (Homo sapiens, UniProt Q99500); experiment: Receptor binding assay, [33P]sphingosine 1-phosphate competition, S1P3
# Procedure: (§1) Membranes Preparation: Membranes were prepared from CHO cells expressing S1P1 or S1P3 for use in ligand and 35S-GTPγS binding studies. Cells were suspended in 50 mM TRIS, pH 7.4, 2 mM EDTA, 250 mM Sucrose (buffer A) and 1× Complete protease inhibitor cocktail (Roche), and disrupted at 4° C. by N2 decompression using a cell disruption bomb (Parr Instrument). Following centrifugation at 1000 RPM for 10 min at 4° C., the supernatant was diluted (2×) in buffer A and centrifuged again at 19000 RPM for 75 min at 4° C. The pellet was then suspended in 10 mM HEPES, pH 7.4, 1 mM EDTA, 250 mM Sucrose (Buffer B), and 1× Complete EDTA-free protease inhibitor cocktail and homogenized using a potter. Membranes were flash frozen in liquid N2 and stored at −80° C.
# (§2) Receptor binding assay: [33P]sphingosine 1-phosphate (3000 Ci/mmol; American Radiolabeled Chemicals, Inc.) was added to test compounds in 20% DMSO by competition. Membranes and WGA SPA beads (GE Healthcare) were added to give a final volume of 100 μl in 96-well plates or 50 μl in 384-well plates with assay concentrations of 30 pM or 15 pM [33P]sphingosine 1-phosphate (respectively for S1P1 or S1P3), 50 mM HEPES, pH 7.5, 5 mM MgCl2, 100 mM NaCl, 0.4% fatty acid-free BSA, 1-5 μg/well of proteins in 96-well plates vs 0.6-1 μg/well of proteins in 384-well plates and 100 μg/well of WGA SPA beads in 96-well plates vs 75 μg/well of WGA SPA beads in 384-well plates. Binding was performed for 60 min at RT on a shaker and bound radioactivity was measured on a PerkinElmer 1450 MicroBeta counter. Triplicate samples were averaged and normalized as purcentage of inhibition relative to total binding (only DMSO in well) and non specific binding (1000-fold excess of unlabeled S1P). Binding data were analyzed using the GraphPad Prism program or Genedata software.
# S1P1 = S1P1 (Homo sapiens, UniProt P21453); experiment: Receptor binding assay, [33P]sphingosine 1-phosphate competition, S1P1
# Chain of S1P1 (P21453 whole entry, species assumed): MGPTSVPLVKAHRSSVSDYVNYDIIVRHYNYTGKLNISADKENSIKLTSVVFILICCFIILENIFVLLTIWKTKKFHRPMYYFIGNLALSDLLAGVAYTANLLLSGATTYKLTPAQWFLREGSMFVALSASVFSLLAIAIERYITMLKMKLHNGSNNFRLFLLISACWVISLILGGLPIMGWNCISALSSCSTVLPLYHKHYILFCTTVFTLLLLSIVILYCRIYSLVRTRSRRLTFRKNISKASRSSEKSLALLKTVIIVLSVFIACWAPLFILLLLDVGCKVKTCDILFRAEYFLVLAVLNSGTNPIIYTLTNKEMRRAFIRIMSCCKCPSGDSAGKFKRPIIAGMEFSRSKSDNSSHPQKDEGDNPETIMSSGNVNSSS
# Procedure: as §1, §2
# [1] = target: T1, human S1P1 Receptor fused to the green fluorescent protein (EGFP) (Homo sapiens, UniProt P21453); experiment: Internalization of S1P1 in S1P1-U2OS cells by cell imaging analysis; format: cell-based; details: 1 hour incubation, 384-well
# T1 construct: host or cells: U2OS (human bone osteosarcoma epithelial cells), CMV promoter, geneticin selection
# T1 sequence (P21453 with tags, fused parts or gaps): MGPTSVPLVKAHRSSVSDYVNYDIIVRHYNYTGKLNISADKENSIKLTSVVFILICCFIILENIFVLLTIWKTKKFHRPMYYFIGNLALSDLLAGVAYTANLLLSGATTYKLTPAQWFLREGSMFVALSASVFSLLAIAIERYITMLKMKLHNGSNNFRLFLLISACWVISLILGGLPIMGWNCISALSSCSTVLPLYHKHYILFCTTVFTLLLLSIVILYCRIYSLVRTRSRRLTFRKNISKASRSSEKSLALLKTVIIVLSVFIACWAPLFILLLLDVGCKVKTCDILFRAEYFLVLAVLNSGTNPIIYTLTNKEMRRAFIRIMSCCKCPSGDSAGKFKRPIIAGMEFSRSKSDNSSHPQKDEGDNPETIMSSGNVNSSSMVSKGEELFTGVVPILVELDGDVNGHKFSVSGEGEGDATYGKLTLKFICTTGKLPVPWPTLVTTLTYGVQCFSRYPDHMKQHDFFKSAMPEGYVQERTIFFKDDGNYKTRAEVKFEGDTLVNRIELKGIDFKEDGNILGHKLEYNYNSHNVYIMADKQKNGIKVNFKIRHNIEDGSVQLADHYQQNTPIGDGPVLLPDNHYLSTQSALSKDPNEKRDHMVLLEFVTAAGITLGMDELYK
# Procedure: Cellular Functional Assays: Internalization of Sphingosine-1-Phosphate Receptor 1 (S1P1) in a Human Cell Line (U2OS) in a 384-Well Format Using a Cell Imaging Analysis.
# The S1P1 internalization assay was performed in 384 well plates (Corning® 384 black with clear bottom 3712) using S1P1-U2OS cells from BioImage (C039A), a human epithelial cell line (Human Bone Osteosarcoma Epithelial Cells). These cells expressed the human S1P1 Receptor fused to the green fluorescent protein (EGFP). A standard CMV promoter (cytomegalovirus promoter) controls the expression of S1P1-EGFP and continuous expression was maintained by addition of geneticin to the culture medium.
# S1P1 Receptor desensitization induced the internalization of the membrane-localized S1P1-EGFP fusion protein to endosomes, which can be monitored by cell imaging analysis.
# The cells are plated in low serum medium (Dulbecco's Modified Eagle Medium (DMEM) with Glutamax-1 and high glucose, 1% Penicillin/Streptomycin, 1% Fetal Calf Serum (FCS), 0.5 mg/ml Geneticin) overnight.
# The next day, S1P1-U2OS cells are incubated in 20 μl serum free medium (DMEM with Glutamax-1 and high glucose, 0.1% of fatty-acid free Bovin Serum Albumin (BSA), 10 mM, N′-2-Hydroxyethylpiperazine-N′-2 ethanesulphonic acid (HEPES) 1M) for 2 hours at 37° C./5% CO2.
# The cells are then treated with 4 μl compounds/agonists (6×/3% DMSO) for a total volume of 24 μl, and plates are incubated for 1 hour at 37° C./5% CO2.
# S1P1-U2OS cells are fixed with 25 μl Paraformaldehyde 8% and stained with Hoechst 33345 dye (1:1000) for 20 minutes.
# They were then washed 3 times with Phosphate Buffered Saline (PBS) and plates are sealed.
# The internalization of the receptor S1P1-EGFP is measured on Cellomics by calculating the “spot count per object” (“object” corresponds to nuclear and “spot” corresponds to S1P1-EGFP receptor). Internalization data were observed thanks to vHCS View and analyzed using Genedata® software.
# [2] = 96 well-plate, read-out: S1P3 binding IC50 (M) (96 well-plate)
# [3] = 384 well-plate, read-out: S1P3 binding IC50 (M) (384 well-plate)
# [4] = 96 well-plate, read-out: S1P1 binding IC50 (M) (96 well-plate)
# [5] = 384 well-plate, read-out: S1P1 binding IC50 (M) (384 well-plate)
# Chain of S1P3 (Q99500 whole entry, species assumed): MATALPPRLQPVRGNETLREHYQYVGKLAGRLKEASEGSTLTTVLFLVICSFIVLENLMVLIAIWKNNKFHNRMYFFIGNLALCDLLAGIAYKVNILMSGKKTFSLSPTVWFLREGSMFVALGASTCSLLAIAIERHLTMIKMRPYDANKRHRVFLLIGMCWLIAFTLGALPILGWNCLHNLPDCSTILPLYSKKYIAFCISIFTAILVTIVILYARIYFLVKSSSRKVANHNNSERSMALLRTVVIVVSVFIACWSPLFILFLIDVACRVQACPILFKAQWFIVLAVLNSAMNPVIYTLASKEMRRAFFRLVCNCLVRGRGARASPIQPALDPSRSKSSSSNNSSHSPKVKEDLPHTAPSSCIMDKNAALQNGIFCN
Structure (SMILES),IC50 (S1P3; [2]),IC50 (S1P3; [3]),IC50 (S1P1; [4]),IC50 (S1P1; [5]),EC50 [1]
"COCc1cc(-c2nc(-c3ccc(N)nc3)no2)ccc1-c1ccccc1F [Example 52, 5-{5-[2′-fluoro-2-(methoxymethyl)biphenyl-4-yl]-1,2,4-oxadiazol-3-yl}pyridin-2-amine]",3.62e-06 M,3.25e-06 M,1.65e-09 M,1.82e-08 M,23.1 nM
"COCc1cc(-c2nc(-c3cnc(NCCC(=O)O)c(C)c3)no2)ccc1-c1ccccc1F [Example 53, N-(5-{5-[2′-fluoro-2-(methoxymethyl)biphenyl-4-yl]-1,2,4-oxadiazol-3-yl}-3-methylpyridin-2-yl)-beta-alanine, hydrochloride salt]",3.1e-06 M,,6.38e-09 M,,99.2 nM
"COCc1cc(-c2nc(-c3cnc(NCCCC(=O)O)c(Cl)c3)no2)ccc1-c1ccccc1F [Example 54, 4-[(3-chloro-5-{5-[2′-fluoro-2-(methoxymethyl)biphenyl-4-yl]-1,2,4-oxadiazol-3-yl}pyridin-2-yl)amino]butanoic acid, hydrochloride salt]",9.32e-07 M,,2.01e-09 M,,16.4 nM
"COCc1cc(-c2nc(-c3cnc(NCCCC(=O)O)c(C)c3)no2)ccc1-c1ccccc1F [Example 55, 4-[(5-{5-[2′-fluoro-2-(methoxymethyl)biphenyl-4-yl]-1,2,4-oxadiazol-3-yl}-3-methylpyridin-2-yl)amino]butanoic acid, hydrochloride salt]",2.82e-06 M,3.39e-06 M,6.02e-09 M,,64.5 nM
"COCc1cc(-c2nc(-c3cnc(NCCCC(=O)O)c(Cl)c3)no2)ccc1-c1ccccc1C [Example 56, 4-[(3-chloro-5-{5-[2-(methoxymethyl)-2′-methylbiphenyl-4-yl]-1,2,4-oxadiazol-3-yl}pyridin-2-yl)amino]butanoic acid, hydrochloride salt]",2.09e-06 M,1.71e-06 M,1.71e-09 M,4.77e-09 M,40.3 nM
"COCc1cc(-c2nc(-c3cnc(NCCCC(=O)O)c(C)c3)no2)ccc1-c1ccccc1C [Example 57, 4-[(5-{5-[2-(methoxymethyl)-2′-methylbiphenyl-4-yl]-1,2,4-oxadiazol-3-yl}-3-methylpyridin-2-yl)amino]butanoic acid, hydrochloride salt]",7.44e-06 M,8.67e-06 M,5.6e-09 M,,81.4 nM
"COCc1cc(-c2nc(-c3cnc(NCCC(=O)O)c(C)c3)no2)ccc1-c1ccccc1C [Example 58, N-(5-{5-[2-(methoxymethyl)-2′-methylbiphenyl-4-yl]-1,2,4-oxadiazol-3-yl}-3-methylpyridin-2-yl)-beta-alanine, hydrochloride salt]",9.3e-06 M,5.26e-06 M,2.94e-09 M,2.48e-08 M,45.5 nM
"Cc1ccccc1-c1ccc(-c2nc(-c3cnc(NCCC(=O)O)c(C)c3)no2)cc1C(F)(F)F [Example 59, N-(3-methyl-5-{5-[2′-methyl-2-(trifluoromethyl)biphenyl-4-yl]-1,2,4-oxadiazol-3-yl}pyridin-2-yl)-beta-alanine, hydrochloride salt]",2e-05 M,,1.04e-08 M,4.56e-08 M,156 nM
"COCc1cc(-c2nc(-c3cnc(Cl)c(F)c3)no2)ccc1-c1ccccc1C [Example 60, 2-chloro-3-fluoro-5-{5-[2-(methoxymethyl)-2′-methylbiphenyl-4-yl]-1,2,4-oxadiazol-3-yl}pyridine]",6.53e-06 M,3e-06 M,2.83e-09 M,4.34e-09 M,19.5 nM
"O=C(O)CCNc1ncc(-c2noc(-c3ccc(-c4ccccc4F)c(C(F)(F)F)c3)n2)cc1Cl [Example 63, N-(3-chloro-5-{5-[2′-fluoro-2-(trifluoromethyl)biphenyl-4-yl]-1,2,4-oxadiazol-3-yl}pyridin-2-yl)-beta-alanine]",3.87e-06 M,,5.4e-09 M,1.73e-08 M,50 nM
"CCOc1cc(-c2nc(-c3cnc(NCCC(=O)O)c(Cl)c3)no2)ccc1-c1ccccc1C [Example 65, N-{3-chloro-5-[5-(2-ethoxy-2′-methylbiphenyl-4-yl)-1,2,4-oxadiazol-3-yl]pyridin-2-yl}-beta-alanine, hydrochloride salt]",1.6e-06 M,2.41e-06 M,2.07e-09 M,7.95e-09 M,16.1 nM
"CC1CCCCN1c1ccc(-c2nc(-c3ccnc(CN(C)CC(=O)O)c3)no2)cc1C(F)(F)F (stereo not shown) [Example 66, 2-(methyl((4-(5-(4-(2-methylpiperidin-1-yl)-3-(trifluoromethyl)phenyl)-1,2,4-oxadiazol-3-yl)pyridin-2-yl)methyl)amino)acetic acid]",7.44e-07 M,1.38e-06 M,3.3e-09 M,8.68e-09 M,14.5 nM
"CC1CCCCN1c1ccc(-c2nc(-c3ccnc(CN(C)CCC(=O)O)c3)no2)cc1C(F)(F)F (stereo not shown) [Example 67, 3-(methyl((4-(5-(4-(2-methylpiperidin-1-yl)-3-(trifluoromethyl)phenyl)-1,2,4-oxadiazol-3-yl)pyridin-2-yl)methyl)amino)propanoic acid]",1.41e-07 M,4.68e-07 M,1.2e-09 M,,14.2 nM
"COCc1cc(-c2nc(-c3ccnc(CN(C)CC(=O)O)c3)no2)ccc1-c1ccccc1C [Example 68, 2-(((4-(5-(2-(methoxymethyl)-2′-methylbiphenyl-4-yl)-1,2,4-oxadiazol-3-yl)pyridin-2-yl)methyl)(methyl)amino)acetic acid]",8.55e-07 M,1.08e-06 M,1.79e-09 M,1.18e-08 M,10.5 nM
"COCc1cc(-c2nc(-c3ccnc(CNCC(=O)O)c3)no2)ccc1-c1ccccc1C [Example 69, 2-((4-(5-(2-(methoxymethyl)-2′-methylbiphenyl-4-yl)-1,2,4-oxadiazol-3-yl)pyridin-2-yl)methylamino)acetic acid]",1.7e-07 M,1.62e-07 M,2.6e-09 M,3.19e-09 M,9.2 nM
"CCOc1cc(-c2nc(-c3cnc(NCCC(=O)O)c(Cl)c3)no2)ccc1-c1ccccc1C(F)(F)F [Example 71, N-(3-chloro-5-{5-[2-ethoxy-2′-(trifluoromethyl)biphenyl-4-yl]-1,2,4-oxadiazol-3-yl}pyridin-2-yl)-beta-alanine, hydrochloride salt]",5.75e-06 M,8.92e-06 M,,3.4e-09 M,21.3 nM
"COCc1cc(-c2nc(-c3cnc(NCCC(=O)O)c(Cl)c3)no2)ccc1-c1cccc(F)c1C [Example 72, N-(3-chloro-5-{5-[3′-fluoro-2-(methoxymethyl)-2′-methylbiphenyl-4-yl]-1,2,4-oxadiazol-3-yl}pyridin-2-yl)-beta-alanine, hydrochloride salt]",,3.78e-06 M,,8.69e-09 M,23.3 nM
